≈ marks a conversion by molar mass, not a printed value.
Experiments:
Staphylococcus aureus [1] = test: Antimicrobial activity against methicillin-resistant Staphylococcus aureus by broth dilution method; assay type: functional; conditions: Staphylococcus aureus
Haemophilus influenzae [2] = test: Antimicrobial activity against beta-lactamase negative Haemophilus influenzae by broth dilution method; assay type: functional; conditions: Haemophilus influenzae
Streptococcus viridans = test: Antimicrobial activity against Streptococcus viridans by broth dilution method; assay type: functional
Moraxella catarrhalis = test: Antimicrobial activity against Moraxella catarrhalis by broth dilution method; assay type: functional
Listeria monocytogenes = test: Antimicrobial activity against Listeria monocytogenes by broth dilution method; assay type: functional
Staphylococcus aureus [3] = test: Antimicrobial activity against Staphylococcus aureus by broth dilution method; assay type: functional; conditions: Staphylococcus aureus
Haemophilus influenzae [4] = test: Antimicrobial activity against Haemophilus influenzae by broth dilution method; assay type: functional; conditions: Haemophilus influenzae
Corynebacterium jeikeium = test: Antimicrobial activity against Corynebacterium jeikeium by broth dilution method; assay type: functional
Enterococcus faecium [5] = test: Antimicrobial activity against vancomycin-resistant Enterococcus faecium by broth dilution method; assay type: functional
Staphylococcus sp. [6] = test: Antimicrobial activity against methicillin-resistant coagulase-negative Staphylococcus by broth dilution method; assay type: functional
Streptococcus pneumoniae [7] = test: Antimicrobial activity against Streptococcus pneumoniae by broth dilution method; assay type: functional; conditions: Streptococcus pneumoniae
Staphylococcus aureus [8] = test: Antimicrobial activity against methicillin-susceptible Staphylococcus aureus by broth dilution method; assay type: functional; conditions: Staphylococcus aureus
Haemophilus influenzae [9] = test: Antimicrobial activity against ampicillin-nonsusceptible beta-lactamase negative Haemophilus influenzae by broth dilution method; assay type: functional; conditions: Haemophilus influenzae
Enterococcus faecalis [10] = test: Antimicrobial activity against vancomycin-susceptible Enterococcus faecalis by broth dilution method; assay type: functional; conditions: Enterococcus faecalis
Staphylococcus sp. [11] = test: Antimicrobial activity against methicillin-susceptible coagulase-negative Staphylococcus by broth dilution method; assay type: functional; conditions: Staphylococcus sp.
Enterococcus sp. = test: Antimicrobial activity against Enterococcus by broth dilution method; assay type: functional; conditions: Enterococcus sp.
Streptococcus pneumoniae [12] = test: Antimicrobial activity against penicillin-intermediate Streptococcus pneumoniae by broth dilution method; assay type: functional; conditions: Streptococcus pneumoniae
Staphylococcus sp. [13] = test: Antimicrobial activity against Staphylococcus sp. by broth dilution method; assay type: functional; conditions: Staphylococcus sp.
Staphylococcus aureus [14] = test: Antimicrobial activity against vancomycin-nonsusceptible Staphylococcus aureus by broth dilution method; assay type: functional; conditions: Staphylococcus aureus
Haemophilus influenzae [15] = test: Antimicrobial activity against beta-lactamase positive Haemophilus influenzae by broth dilution method; assay type: functional; conditions: Haemophilus influenzae; for MIC90: read-out: MIC90
Enterococcus faecium [16] = test: Antimicrobial activity against vancomycin-susceptible Enterococcus faecium by broth dilution method; assay type: functional; conditions: Enterococcus faecium
Streptococcus pneumoniae [17] = test: Antimicrobial activity against penicillin-resistant Streptococcus pneumoniae by broth dilution method; assay type: functional
Streptococcus pneumoniae [18] = test: Antimicrobial activity against penicillin-susceptible Streptococcus pneumoniae by broth dilution method; assay type: functional; conditions: Streptococcus pneumoniae
Streptococcus sp = test: Antimicrobial activity against streptococcal sp. by broth dilution method; conditions: Streptococcus sp.
Staphylococcus aureus [19] = test: Antimicrobial activity against linezolid-resistant Staphylococcus aureus by broth dilution method; assay type: functional
Enterococcus faecalis [20] = test: Antimicrobial activity against vancomycin-resistant Enterococcus faecalis by broth dilution method; assay type: functional

CO/N=C(\C(=O)N[C@@H]1C(=O)N2C(C(=O)O)=C(COC(C)=O)CS[C@H]12)c1csc(N)n1 [CEFOTAXIME]
MIC50 (Staphylococcus aureus [1]): 16 µg/mL (≈ 35.1 µM)
MIC (Haemophilus influenzae [2]): 0.008 µg/mL (≈ 0.0176 µM)
MIC50 (Haemophilus influenzae [2]): 0.008 µg/mL (≈ 0.0176 µM)
MIC90 (Haemophilus influenzae [2]): 0.015 µg/mL (≈ 0.0329 µM)
MIC50 (Streptococcus viridans): 0.12 µg/mL (≈ 0.263 µM)
MIC90 (Streptococcus viridans): 0.5 µg/mL (≈ 1.1 µM)
MIC50 (Moraxella catarrhalis): 0.25 µg/mL (≈ 0.549 µM)
MIC90 (Moraxella catarrhalis): 1 µg/mL (≈ 2.2 µM)
MIC50 (Listeria monocytogenes): 32 µg/mL (≈ 70.3 µM)
MIC90 (Listeria monocytogenes): 32 µg/mL (≈ 70.3 µM)
MIC50 (Staphylococcus aureus [3]): > 8 µg/mL
MIC90 (Staphylococcus aureus [3]): > 64 µg/mL
MIC50 (Haemophilus influenzae [4]): 0.015 µg/mL (≈ 0.0329 µM)
MIC90 (Haemophilus influenzae [4]): 0.5 µg/mL (≈ 1.1 µM)
MIC50 (Corynebacterium jeikeium): 32 µg/mL (≈ 70.3 µM)
MIC90 (Corynebacterium jeikeium): 32 µg/mL (≈ 70.3 µM)
MIC (Enterococcus faecium [5]): > 64 µg/mL
MIC50 (Staphylococcus sp. [6]): 8 µg/mL (≈ 17.6 µM)
MIC50 (Streptococcus pneumoniae [7]): 0.12 µg/mL (≈ 0.263 µM)
MIC90 (Streptococcus pneumoniae [7]): 2 µg/mL (≈ 4.39 µM)
MIC50 (Staphylococcus aureus [8]): 2 µg/mL (≈ 4.39 µM)
MIC90 (Staphylococcus aureus [8]): 2 µg/mL (≈ 4.39 µM)
MIC50 (Haemophilus influenzae [9]): 0.5 µg/mL (≈ 1.1 µM)
MIC90 (Haemophilus influenzae [9]): 0.5 µg/mL (≈ 1.1 µM)
MIC50 (Enterococcus faecalis [10]): > 64 µg/mL
MIC90 (Enterococcus faecalis [10]): > 64 µg/mL
MIC50 (Staphylococcus sp. [11]): 0.5 µg/mL (≈ 1.1 µM)
MIC90 (Staphylococcus sp. [11]): 2 µg/mL (≈ 4.39 µM)
MIC50 (Enterococcus sp.): > 64 µg/mL
MIC90 (Enterococcus sp.): > 64 µg/mL
MIC50 (Streptococcus pneumoniae [12]): 0.12 µg/mL (≈ 0.263 µM)
MIC90 (Streptococcus pneumoniae [12]): 0.5 µg/mL (≈ 1.1 µM)
MIC50 (Staphylococcus sp. [13]): 4 µg/mL (≈ 8.78 µM)
MIC90 (Staphylococcus sp. [13]): > 64 µg/mL
MIC50 (Staphylococcus aureus [14]): > 64 µg/mL
MIC90 (Staphylococcus aureus [14]): > 64 µg/mL
MIC50 (Haemophilus influenzae [15]): 0.015 µg/mL (≈ 0.0329 µM)
MIC90 (Haemophilus influenzae [15]): 0.015 µg/mL (≈ 0.0329 µM)
MIC50 (Enterococcus faecium [16]): > 64 µg/mL
MIC90 (Enterococcus faecium [16]): > 64 µg/mL
MIC50 (Streptococcus pneumoniae [17]): 1 µg/mL (≈ 2.2 µM)
MIC90 (Streptococcus pneumoniae [17]): 8 µg/mL (≈ 17.6 µM)
MIC (Streptococcus pneumoniae [18]): 0.015 µg/mL (≈ 0.0329 µM)
MIC50 (Streptococcus pneumoniae [18]): 0.015 µg/mL (≈ 0.0329 µM)
MIC90 (Streptococcus pneumoniae [18]): 0.03 µg/mL (≈ 0.0659 µM)
MIC50 (Streptococcus sp): 0.03 µg/mL (≈ 0.0659 µM)
MIC90 (Streptococcus sp): 1 µg/mL (≈ 2.2 µM)

C[C@H]1COc2c(N3CCN(C)CC3)c(F)cc3c(=O)c(C(=O)O)cn1c23.C[C@H]1COc2c(N3CCN(C)CC3)c(F)cc3c(=O)c(C(=O)O)cn1c23.O [LEVOFLOXACIN]
MIC50 (Staphylococcus aureus [1]): 8 µg/mL
MIC (Haemophilus influenzae [2]): 0.12 µg/mL
MIC50 (Haemophilus influenzae [2]): 0.12 µg/mL
MIC90 (Haemophilus influenzae [2]): 0.12 µg/mL
MIC50 (Streptococcus viridans): 1 µg/mL
MIC90 (Streptococcus viridans): 2 µg/mL
MIC50 (Moraxella catarrhalis): 0.06 µg/mL
MIC90 (Moraxella catarrhalis): 0.06 µg/mL
MIC (Listeria monocytogenes): 1 µg/mL
MIC50 (Listeria monocytogenes): 1 µg/mL
MIC90 (Listeria monocytogenes): 1 µg/mL
MIC50 (Staphylococcus aureus [3]): 4 µg/mL
MIC90 (Staphylococcus aureus [3]): > 16 µg/mL
MIC50 (Staphylococcus aureus [19]): > 16 µg/mL
MIC (Haemophilus influenzae [4]): 0.12 µg/mL
MIC50 (Haemophilus influenzae [4]): 0.12 µg/mL
MIC90 (Haemophilus influenzae [4]): 0.12 µg/mL
MIC (Corynebacterium jeikeium): > 16 µg/mL
MIC50 (Corynebacterium jeikeium): > 16 µg/mL
MIC90 (Corynebacterium jeikeium): > 16 µg/mL
MIC50 (Enterococcus faecium [5]): > 16 µg/mL
MIC50 (Staphylococcus sp. [6]): 8 µg/mL
MIC50 (Streptococcus pneumoniae [7]): 1 µg/mL
MIC90 (Streptococcus pneumoniae [7]): 1 µg/mL
MIC50 (Staphylococcus aureus [8]): 0.25 µg/mL
MIC90 (Staphylococcus aureus [8]): 4 µg/mL
MIC (Haemophilus influenzae [9]): 0.12 µg/mL
MIC50 (Haemophilus influenzae [9]): 0.12 µg/mL
MIC90 (Haemophilus influenzae [9]): 0.12 µg/mL
MIC50 (Enterococcus faecalis [10]): 1 µg/mL
MIC90 (Enterococcus faecalis [10]): > 16 µg/mL
MIC50 (Staphylococcus sp. [11]): 0.25 µg/mL
MIC90 (Staphylococcus sp. [11]): 0.5 µg/mL
MIC50 (Enterococcus faecalis [20]): > 16 µg/mL
MIC50 (Enterococcus sp.): > 16 µg/mL
MIC90 (Enterococcus sp.): > 16 µg/mL
MIC50 (Streptococcus pneumoniae [12]): 1 µg/mL
MIC90 (Streptococcus pneumoniae [12]): 1 µg/mL
MIC50 (Staphylococcus sp. [13]): 0.5 µg/mL
MIC90 (Staphylococcus sp. [13]): > 16 µg/mL
MIC50 (Staphylococcus aureus [14]): 16 µg/mL
MIC90 (Staphylococcus aureus [14]): > 16 µg/mL
MIC (Haemophilus influenzae [15]): 0.12 µg/mL
MIC50 (Haemophilus influenzae [15]): 0.12 µg/mL
MIC90 (Haemophilus influenzae [15]): 0.12 µg/mL
MIC50 (Enterococcus faecium [16]): 4 µg/mL
MIC90 (Enterococcus faecium [16]): > 16 µg/mL
MIC50 (Streptococcus pneumoniae [17]): 1 µg/mL
MIC90 (Streptococcus pneumoniae [17]): 1 µg/mL
MIC50 (Streptococcus pneumoniae [18]): 1 µg/mL
MIC90 (Streptococcus pneumoniae [18]): 1 µg/mL
MIC50 (Streptococcus sp): 1 µg/mL
MIC90 (Streptococcus sp): 1 µg/mL
